{"source": "patent US10668049B2", "about": "“Methods of treating cognitive decline with transforming growth factor beta inhibitors” (The Regents of the University of California, priority 2008, dated 2020)", "format_in_all_cases": "cell-based, rat", "key": {"astrocytic cultures": {"tested_on": "astrocytic cultures", "assay": "RT-PCR of astrocytic cultures exposed to albumin", "details": "albumin for 24 h", "procedure": "(§1) Primary neuronal cortical cultures were prepared from embryonic day 18 rats as reported previously (Kaufer et al., 2004). Briefly, cells were dissociated with a papain solution for 20 min at 37° C., After the removal of the papain solution, the tissue was resuspended in growth medium [MEM with Earle's salts containing 2.5% B27 supplement, 0.1% mito serum extender, 5% fetal bovine serum (FBS), 20 mM glucose, and 5 mM L-glutamine] and dissociated by mechanical trituration. The cells were plated, and after 4 h in vitro the cell culture medium was replaced with neurobasal medium supplemented with 2% B27 supplement and 0.5 mM GlutaMAX™. The cells were maintained in 5% CO2 at 37° C. After 7 days in vitro, cytosine arabinofuranoside (AraC) (10 μM) was added to the cultures. After 10 days in vitro, the cells were incubated with 0.4 mM albumin for 24 h at 37° C. For astrocytic cultures, astrocytcs were isolated from the cerebral cortices of PO rat pups. Cells were dissociated with papain and mechanical trituration. The cells were cultured in high-glucose Dulbecco's modified eagle medium supplemented with 10% FBS and 1% penicillin/streptomycin at 37° C. and in 5% C02 (medium was replaced every 3-4 days). After 10 days in vitro, the culture medium was replaced with serum-free high-glucose DMEM (containing 1% penicillin/streptomycin) for 18 h. The cells were then incubated in scrum-free medium containing 0.4 mM albumin for 24 h at 37° C. For immunostainings cells were washed with phosphate buffered saline (PBS) and fixed in 4% paraformaldehyde for 15 min. The cells were permeabilized with 0.2% Triton X-100 in PBS for 5 min and washed in PBS. They were then incubated with 5% normal donkey serum in PBS for one hour at room temperature followed by overnight incubation at 4° C. with either mouse anti-NeuN (1:1000: Chemicon, Temecula, Calif.) or mouse anti-GFAP (1:1000: Cell Signaling Technology, Beverly, Mass.). The cells were washed in PBS, incubated with donkey anti-mouse Cy3 (1:1000; Jackson ImmunoResearch. West Grove, Pa.) for 1 hour at room temperature, and then counterstained with DAPI.\nTotal RNA was isolated from the somatosensory cortices of animals treated with DOC or albumin (24 h treatment; n=3) or from primary cultures (astrocytic and neuronal, n=3 independent experiments). Expression levels were determined by real-time reverse transcriptase-PCR (RT-PCR) with an iQ5 detection system (Bio-Rad, Hercules, Calif.) using gene-specific primer pairs. RT-PCR data were analyzed using the PCR Miner program (Zhao and Fernald, 2005), and fold changes in gene expression were represented relative to sham-operated controls (in-vivo samples) or serum-deprived controls (in-vitro, samples). Ribosomal 18S RNA (18S rRNA) was used as an internal control for variations in sample preparation. For samples from in-vivo treatments, RT-PCR was performed with the iScript one-step RT-PCR kit (Bio-Rad). Control RT-PCR reactions were performed without reverse transcriptase to verify amplification of genomic DNA. For in-vitro samples, DNase treatment was applied, followed by first-strand cDNA synthesis (iScript cDNA Synthesis kit, Bio-Rad). PCR reactions were carried out with iQ SYBR Green Supermix (Bio-Rad). Primer specificity was verified by melt curve analysis. The amplification cycles for 18S, Gja1, GS, SLC1A2, SLC1A3 (GLAST) and Kenj10 consisted of 40 cycles of 10 s at 95° C., 30 s at 55° C., and 30 s at 72° C. […]"}, "cortical slices": {"tested_on": "cortical slices", "assay": "Extracellular potassium accumulation in cortical slices measured with ion-sensitive microelectrodes", "details": "slices 24 h following treatment with albumin; frequencies ≥10 Hz", "procedure": "Electrophysiological recordings were obtained 6-10 h following perfusion with sACSF. Control slices were treated similarly, using sACSF without albumin. For extracellular recordings, glass microelectrodes (˜3 MΩ, 154 mM NaCl) were positioned in layer 4 of the neocortex. Slices were stimulated with brief (100 μs) pulses, by using bipolar stimulation electrodes placed at the border between white and gray matter in the same conical column. Trains of 50 stimuli were applied at 2, 5, 10, 20, 50 and 100 Hz, at 2.5× threshold stimulation intensity. […] Extracellular potassium concentrations ([K+]o) were measured with ion-sensitive microelectrodes (ISMEs; Lux and Neher, 1973: Jauch et al., 2002).\nTo study K^+ clearance from the extracellular space, K clearance was recorded from control and treated slices (24 h following treatment with albumin) by using ISMEs. Slower decay kinetics of [K^+]o in response to pressure application in BBB-treated animals has been reported (Ivens et al., 2007). Here, [K]o accumulation during neuronal activation at different frequencies of stimulation was tested. In slices from control animals, the increase in [K^+]o was limited to 25% of baseline levels (<3.75 mM) at all stimulation frequencies with the employed stimulation intensities and number of stimuli."}, "[1]": {"tested_on": "neuronal-enriched culture", "assay": "RT-PCR of neuronal-enriched cultures exposed to albumin", "details": "albumin for 24 h", "procedure": "as §1, with “For immunostainings cells were washed with phosphate buffered saline (PBS) and fixed in 4% paraformaldehyde for 15 min. The cells were permeabilized with 0.2% Triton X-100 in PBS for 5 min and washed in PBS. They were then incubated with 5% normal donkey serum in PBS for one hour at room temperature followed by overnight incubation at 4° C. with either mouse anti-NeuN (1:1000: Chemicon, Temecula, Calif.) or mouse anti-GFAP (1:1000: Cell Signaling Technology, Beverly, Mass.). The cells were washed in PBS, incubated with donkey anti-mouse Cy3 (1:1000; Jackson ImmunoResearch. West Grove, Pa.) for 1 hour at room temperature, and then counterstained with DAPI.” left out\nTotal RNA was isolated from the somatosensory cortices of animals treated with DOC or albumin (24 h treatment; n=3) or from primary cultures (astrocytic and neuronal, n=3 independent experiments). Expression levels were determined by real-time reverse transcriptase-PCR (RT-PCR) with an iQ5 detection system (Bio-Rad, Hercules, Calif.) using gene-specific primer pairs. RT-PCR data were analyzed using the PCR Miner program (Zhao and Fernald, 2005), and fold changes in gene expression were represented relative to sham-operated controls (in-vivo samples) or serum-deprived controls (in-vitro, samples). […]"}}}
{"substance": "albumin: bovine serum albumin, used to induce epileptogenesis", "values": [{"measurement": "GS transcript expression", "setting": "astrocytic cultures", "result": "significant down-regulation"}, {"measurement": "Gja1 transcript expression", "setting": "astrocytic cultures", "result": "significant down-regulation"}, {"measurement": "Gjb2 transcript expression", "setting": "astrocytic cultures", "result": "significant down-regulation"}, {"measurement": "Gjb6 transcript expression", "setting": "astrocytic cultures", "result": "significant down-regulation"}, {"measurement": "S1C1A3 transcript expression", "setting": "astrocytic cultures", "result": "significant down-regulation"}, {"measurement": "[K+]o accumulation during neuronal activation, level reached", "setting": "cortical slices", "result": 6.7, "unit": "mM"}, {"measurement": "GS mRNA levels", "setting": "[1]", "result": "downregulation"}, {"measurement": "Gjb6 mRNA levels", "setting": "[1]", "result": "upregulation"}, {"measurement": "expression levels of the same transcripts (except GS and Gjb6)", "setting": "[1]", "result": "No significant differences"}]}
